Drawing on PubChem BioAssay (NCI), this text covers TGI for four compounds.

Test systems include CAKI-1 renal; NCI-H23 lung; HOP-92 NSCLC; SK-MEL-5 melanoma; KM12 colon; UO-31 renal; IGROV1 ovarian; PC-3 prostate; NCI-H460 lung; NCI/ADR-RES ovarian; A549 NSCLC; ACHN renal; HL-60(TB) leukemia; OVCAR-5 ovarian; HCT-15 colon; SNB-19 CNS; UACC-62 melanoma; EKVX NSCLC; HT29 colon.
What all share (experiment): NCI-60 cell line screen, 48 h

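Interpolation was linear, between the two tested concentrations surrounding the appropriate level; five concentrations were tested over 48 hours in 96-well plates. TGI: concentration producing complete growth inhibition.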

Take `O=C(N/N=C\c1ccc([N+](=O)[O-])cc1)Nc1cccc2ccccc12`: the TGI was 33.1 µM with CAKI-1 renal; 61.9 µM in the assay on NCI-H23 lung; 16.7 µM with HOP-92 NSCLC; over 100 µM in the assay on SK-MEL-5 melanoma; over 100 µM in the assay with KM12 colon; over 79.8 µM in the assay with UO-31 renal. Also, the TGI is over 100 µM in the assay on IGROV1 ovarian; over 71.4 µM with PC-3 prostate; over 51.9 µM with NCI-H460 lung; over 100 µM in the assay on NCI/ADR-RES ovarian; over 100 µM in the assay with A549 NSCLC; over 100 µM in the assay on ACHN renal. Moreover, the TGI with HL-60(TB) leukemia is over 31.6 µM; in the assay with OVCAR-5 ovarian, over 100 µM; with HCT-15 colon, over 100 µM; in the assay with SNB-19 CNS, 29.4 µM; with UACC-62 melanoma, over 49.8 µM; with EKVX NSCLC it was over 100 µM. The compound also showed a TGI in the assay on HT29 colon of over 100 µM.
`O=c1[nH]c2ccc(CC(=S)N3CCN(c4ccccc4)CC3)cc2o1`: the TGI in the assay with CAKI-1 renal, with NCI-H23 lung, with HOP-92 NSCLC, in the assay on SK-MEL-5 melanoma, with KM12 colon and in the assay on UO-31 renal was over 100 µM in each case. Besides, the TGI in the assay with IGROV1 ovarian, in the assay with PC-3 prostate, in the assay with NCI-H460 lung, in the assay with NCI/ADR-RES ovarian, in the assay with A549 NSCLC and with ACHN renal was over 100 µM in each case. For the same compound, the TGI with HL-60(TB) leukemia, in the assay on OVCAR-5 ovarian, in the assay on HCT-15 colon, in the assay with SNB-19 CNS, in the assay with UACC-62 melanoma and in the assay with EKVX NSCLC was over 100 µM throughout. Further, in the assay with HT29 colon, the TGI was over 100 µM.
For `Clc1ccc2c(NCCNc3ccnc4cc(Cl)ccc34)ccnc2c1`, the TGI with CAKI-1 renal turned out to be 34.8 µM; with NCI-H23 lung it was 33.2 µM; with HOP-92 NSCLC, 38.5 µM; with SK-MEL-5 melanoma, 38.1 µM; in the assay with KM12 colon it was 32.5 µM; with UO-31 renal it was 29.1 µM. Besides, the TGI with IGROV1 ovarian was 36.6 µM; in the assay on PC-3 prostate it was 34.5 µM; in the assay with NCI-H460 lung, 27 µM; in the assay with NCI/ADR-RES ovarian it was over 100 µM; with A549 NSCLC, 35.6 µM; in the assay with ACHN renal, 32.7 µM. Besides, the TGI worked out at 31 µM with HL-60(TB) leukemia; 33.3 µM in the assay with OVCAR-5 ovarian; 31 µM with HCT-15 colon; 50.2 µM in the assay with SNB-19 CNS; 33.1 µM in the assay with UACC-62 melanoma; 41.4 µM with EKVX NSCLC. This compound also had a TGI in the assay with HT29 colon of 29.5 µM.
In the case of `CC(=O)N1N=C(N)CC1=O`, the TGI in the assay on CAKI-1 renal, in the assay on NCI-H23 lung, in the assay on HOP-92 NSCLC, with SK-MEL-5 melanoma, in the assay on KM12 colon and with UO-31 renal was over 100 µM in each case. Moreover, the TGI in the assay on IGROV1 ovarian, with PC-3 prostate, with NCI-H460 lung, in the assay with NCI/ADR-RES ovarian, in the assay with A549 NSCLC and in the assay on ACHN renal was over 100 µM in each case. Further, the TGI in the assay on HL-60(TB) leukemia, with OVCAR-5 ovarian, with HCT-15 colon, with SNB-19 CNS, in the assay on UACC-62 melanoma and in the assay on EKVX NSCLC was over 100 µM each time. Moreover, the TGI in the assay with HT29 colon is over 100 µM.
